Patent US7109193B2, “Tricyclic diazepines tocolytic oxytocin receptor antagonists” (Wyeth, priority 2001, dated 2006)

Molecular target: T1, human oxytocin receptor (Homo sapiens, UniProt P30559)
T1 construct: host or cells: CHO cells (pcDNA3.1 vector)
T1 sequence (P30559 1-389): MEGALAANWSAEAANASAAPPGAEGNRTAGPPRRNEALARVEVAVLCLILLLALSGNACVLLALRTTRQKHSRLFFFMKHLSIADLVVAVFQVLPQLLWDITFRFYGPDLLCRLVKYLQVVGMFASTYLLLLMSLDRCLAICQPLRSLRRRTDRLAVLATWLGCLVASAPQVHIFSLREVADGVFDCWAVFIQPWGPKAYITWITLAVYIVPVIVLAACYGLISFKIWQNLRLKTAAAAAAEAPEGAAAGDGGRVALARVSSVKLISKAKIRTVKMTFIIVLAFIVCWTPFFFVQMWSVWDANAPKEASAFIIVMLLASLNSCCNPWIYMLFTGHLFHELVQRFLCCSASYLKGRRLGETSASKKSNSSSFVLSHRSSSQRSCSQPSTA
Assay: Oxytocin binding in Chinese Hamster Ovary cell membranes expressing human oxytocin receptors
Conditions: 100 nM, CHO cell membranes, [3H]oxytocin, values without parentheses, read-out: OT % inhibition @ 100% nM

inhibition at 0.1 µM [%] | Structure (SMILES)
69 | COc1cccc(-c2ccc(C(=O)N3Cc4ccc(C(=O)N5CCN(C(C)C)CC5)n4Cc4ccccc43)cc2OC)c1 [Example 242, {10-[(2,3′-Dimethoxy[1,1′-biphenyl]-4-yl)carbonyl]-10,11-dihydro-5H-pyrrolo[2,1-c][1,4]benzodiazepin-3-yl}(4-isopropyl-1-piperazinyl)methanone]
81 | Cc1ccccc1-c1ccc(C(=O)N2Cc3ccc(C(=O)N4CCN(CCN5CCOCC5)CC4)n3Cc3ccccc32)cc1 [Example 209, {10-[(2′-Methyl[1,1′-biphenyl]-4-yl)carbonyl]-10,11-dihydro-5H-pyrrolo[2,1-c][1,4]benzodiazepin-3-yl}{4-[2-(4-morpholinyl)ethyl]-1-piperazinyl}methanone]
36 | COc1cccc(-c2cc(OC)c(C(=O)N3Cc4ccc(C(=O)NCCC5CCCN5C)n4Cc4ccccc43)cc2Cl)c1 (stereo not drawn) [Example 169, 10-[(6-Chloro-3,3′-dimethoxy[1,1′-biphenyl]-4-yl)carbonyl]-N-[2-(1-methyl-2-pyrrolidinyl)ethyl]-10,11-dihydro-5H-pyrrolo[2,1-c][1,4]benzodiazepine-3-carboxamide]
98 | COc1cc(-c2ccccc2C)c(Cl)cc1C(=O)N1Cc2ccc(C(=O)N(C)C3CCN(C)CC3)n2Cc2ccccc21 [Example 180, 10-[(6-Chloro-3-methoxy-2′-methyl[1,1′-biphenyl]-4-yl)carbonyl]-N-methyl-N-(1-methyl-4-piperidinyl)-10,11-dihydro-5H-pyrrolo[2,1-c][1,4]benzodiazepine-3-carboxamide]
56 | Cc1cc(C(=O)N2Cc3ccc(C(=O)N4CCN(C(=O)OC(C)(C)C)CC4)n3Cc3ccccc32)ccc1-c1ccccc1C(F)(F)F [Example 6, 4-[[10,11-Dihydro-10-[[2-methyl-2′-trifluoromethyl[1,1′-biphenyl]-4-yl]carbonyl]-5H-pyrrolo[2,1-c][1,4]benzodiazepin-3-yl]carbonyl]-1-piperazine-carboxylic acid, tert-butyl ester]
98 | COc1cc(-c2ccccc2C)c(Cl)cc1C(=O)N1Cc2ccc(C(=O)N3CCN(CCN4CCOCC4)CC3)n2Cc2ccccc21 [Example 217, {10-[(6-Chloro-3-methoxy-2′-methyl[1,1′-biphenyl]-4-yl)carbonyl]-10,11-dihydro-5H -pyrrolo[2,1-c][1,4]benzodiazepin-3-yl}{4-[2-(4-morpholinyl)ethyl]-1-piperazinyl}methanone]
86 | Cc1ccccc1-c1ccc(C(=O)N2Cc3ccc(C(=O)N4CCN(C(C)C)CC4)n3Cc3ccccc32)cc1C [Example 233, {10-[(2,2′-Dimethyl[1,1′-biphenyl]-4-yl)carbonyl]-10,11-dihydro-5H-pyrrolo[2,1-c][1,4]benzodiazepin-3-yl}(4-isopropyl-1-piperazinyl)methanone]
100 | COc1ccccc1-c1ccc(C(=O)N2Cc3ccc(C(=O)N(C)C4CCN(C)C4)n3Cc3ccccc32)cc1 (stereo not drawn) [Example 187, 10-[(2′-Methoxy[1,1′-biphenyl]-4-yl)carbonyl]-N-methyl-N-(1-methyl-3-pyrrolidinyl)-10,11-dihydro-5H-pyrrolo[2,1-c][1,4]benzodiazepine-3-carboxamide]
70 | COc1cc(C(=O)N2Cc3ccc(C(=O)N4CCN(CCN5CCOCC5)CC4)n3Cc3ccccc32)ccc1-c1cccc2ccccc12 [Example 213, {10-[3-Methoxy-4-(1-naphthyl)benzoyl]-10,11-dihydro-5H-pyrrolo[2,1-c][1,4]benzodiazepin-3-yl}{4-[2-(4-morpholinyl)ethyl]-1-piperazinyl}methanone]
98 | COc1ccccc1-c1ccc(C(=O)N2Cc3ccc(C(=O)N(C)C4CCN(C)CC4)n3Cc3ccccc32)cc1C [Example 175, 10-[(2′-Methoxy-2-methyl[1,1′-biphenyl]-4-yl)carbonyl]-N-methyl-N-(1-methyl-4-piperidinyl)-10,11-dihydro-5H-pyrrolo[2,1-c][1,4]benzodiazepine-3-carboxamide]
95 | COc1ccccc1-c1ccc(C(=O)N2Cc3ccc(C(=O)N(C)C4CCN(C)C4)n3Cc3ccccc32)cc1C (stereo not drawn) [Example 185, 10-[(2′-Methoxy-2-methyl[1,1′-biphenyl]-4-yl)carbonyl]-N-methyl-N-(1-methyl-3-pyrrolidinyl)-10,11-dihydro-5H-pyrrolo[2,1-c][1,4]benzodiazepine-3-carboxamide]
79 | COc1cc(C(=O)N2Cc3ccc(C(=O)N4CCN(C(C)C)CC4)n3Cc3ccccc32)ccc1-c1ccccc1C [Example 237, (4-isopropyl-1-piperazinyl){10-[(2-methoxy-2′-methyl[1,1′-biphenyl]-4-yl)carbonyl]-10,11-dihydro-5H-pyrrolo[2,1-c][1,4]benzodiazepin-3-yl}methanone]
86 | COc1cc(C(=O)N2Cc3ccc(C(=O)N4CCN(CCN(C)C)CC4)n3Cc3ccccc32)ccc1-c1ccccc1C [Example 201, {4-[2-(Dimethylamino)ethyl]-1-piperazinyl}{10-[(2-methoxy-2′-methyl[1,1′-biphenyl]-4-yl)carbonyl]-10,11-dihydro-5H-pyrrolo[2,1-c][1,4]benzodiazepin-3-yl}methanone]
93 | COc1cc(C(=O)N2Cc3ccc(C(=O)N(C)C4CCN(C)CC4)n3Cc3ccccc32)ccc1-c1ccccc1C [Example 179, 10-[(2-Methoxy-2′-methyl[1,1′-biphenyl]-4-yl)carbonyl]-N-methyl-N-(1-methyl-4-piperidinyl)-10,11-dihydro-5H-pyrrolo[2,1-c][1,4]benzodiazepine-3-carboxamide]
21 | CN1CCCC1CCNC(=O)c1ccc2n1Cc1ccccc1N(C(=O)c1ccc(-c3cccc4ccccc34)cc1Cl)C2 (stereo not drawn) [Example 173, 10-[2-Chloro-4-(1-naphthyl)benzoyl]-N-[2-(1-methyl-2-pyrrolidinyl)ethyl]-10,11-dihydro-5H-pyrrolo[2,1-c][1,4]benzodiazepine-3-carboxamide]
51 | COc1ccccc1-c1ccc(C(=O)N2Cc3ccc(C(=O)N4CCN(C(C)C)CC4)n3Cc3ccccc32)cc1OC [Example 241, {10-[(2,2′-Dimethoxy[1,1-biphenyl]4-yl)carbonyl]-10,11-dihydro-5H-pyrrolo[2,1-c][1,4]benzodiazepin-3-yl}(4-isopropyl-1-piperazinyl)methanone]
77 | C=CCN1CCN(C(=O)c2ccc3n2Cc2ccccc2N(C(=O)c2ccc(-c4cccc(OC)c4)c(OC)c2)C3)CC1 [Example 228, (4-Allyl-1-piperazinyl){10-[(2,3′-dimethoxy[1,1′-biphenyl]-4-yl)carbonyl]-10,11-dihydro-5H -pyrrolo[2,1-c][1,4]benzodiazepin-3-yl}methanone]
50 | COc1ccccc1-c1ccc(C(=O)N2Cc3ccc(C(=O)NCCN4CCCCC4)n3Cc3ccccc32)cc1OC [Example 158, 10-[(2,2′-Dimethoxy[1,1′-biphenyl]-4-yl)carbonyl]-N-[2-(1-piperidinyl)ethyl]-10,11-dihydro-5H-pyrrolo[2,1-c][1,4]benzodiazepine-3-carboxamide]
71 | C=CCN1CCN(C(=O)c2ccc3n2Cc2ccccc2N(C(=O)c2cc(Cl)c(-c4cccc(OC)c4)cc2OC)C3)CC1 [Example 226, (4-Allyl-1-piperazinyl){10-[(6-chloro-3,3′-dimethoxy[1,1′-biphenyl]-4-yl)carbonyl]-10,11-dihydro-5H-pyrrolo[2,1-c][1,4]benzodiazepin-3-yl}methanone]
100 | COc1cccc(-c2cc(OC)c(C(=O)N3Cc4ccc(C(=O)N(C)C5CCN(C)CC5)n4Cc4ccccc43)cc2Cl)c1 [Example 181, 10-[(6-Chloro-3,3′-dimethoxy[1,1′-biphenyl]-4-yl)carbonyl]-N-methyl-N-(1-methyl4-piperidinyl)-10,11-dihydro-5H-pyrrolo[2,1-c][1,4]benzodiazepine-3-carboxamide]
88 | COc1cccc(-c2ccc(C(=O)N3Cc4ccc(C(=O)N(C)C5CCN(C)CC5)n4Cc4ccccc43)cc2C)c1 [Example 176, 10-[(3′-Methoxy-2-methyl[1,1′-biphenyl]-4-yl)carbonyl]-N-methyl-N-(1-methyl-4-piperidinyl)-10,11-dihydro-5H-pyrrolo[2,1-c][1,4]benzodiazepine-3-carboxamide]
53 | Cc1cc(C(=O)N2Cc3ccc(C(=O)NCCN4CCCCC4)n3Cc3ccccc32)ccc1-c1ccccc1C(F)(F)F [Example 161, 10-{[2-Methyl-2′-(trifluoromethyl)[1,1′-biphenyl]-4-yl]carbonyl}-N-[2-(1-piperidinyl)ethyl]-10,11-dihydro-5H-pyrrolo[2,1-c][1,4]benzodiazepine-3-carboxamide]
87 | COc1cccc(-c2ccc(C(=O)N3Cc4ccc(C(=O)N5CCN(CCN6CCOCC6)CC5)n4Cc4ccccc43)cc2OC)c1 [Example 211, {10-[(2,3′-Dimethoxy[1,1′-biphenyl]-4-yl)carbonyl]-10,11-dihydro-5H-pyrrolo[2,1-c][1,4]benzodiazepin-3-yl}{4-[2-(4-morpholinyl)ethyl]-1-piperazinyl}methanone]
87 | Cc1ccccc1-c1ccc(C(=O)N2Cc3ccc(C(=O)N4CCN(CCN(C)C)CC4)n3Cc3ccccc32)cc1 [Example 200, {4-[2-(Dimethylamino)ethyl]-1-piperazinyl}{10-[(2′-methyl[1,1′-biphenyl]-4-yl)carbonyl]-10,11-dihydro-5H-pyrrolo[2,1-c][1,4]benzodiazepin-3-yl}methanone]
